Laboratory results taken from article PMC6479253 (Assay and Drug Development Technologies, 2019).
pIC50: −log10 of the molar value. Read-outs that look alike come from different tables or passages of the source.

Assays:
[1] = biological target: T1, human Kir2.1 channels (Homo sapiens, UniProt P63252); assay: cell-based; type: cell-based
T1 sequence (P63252 1-427): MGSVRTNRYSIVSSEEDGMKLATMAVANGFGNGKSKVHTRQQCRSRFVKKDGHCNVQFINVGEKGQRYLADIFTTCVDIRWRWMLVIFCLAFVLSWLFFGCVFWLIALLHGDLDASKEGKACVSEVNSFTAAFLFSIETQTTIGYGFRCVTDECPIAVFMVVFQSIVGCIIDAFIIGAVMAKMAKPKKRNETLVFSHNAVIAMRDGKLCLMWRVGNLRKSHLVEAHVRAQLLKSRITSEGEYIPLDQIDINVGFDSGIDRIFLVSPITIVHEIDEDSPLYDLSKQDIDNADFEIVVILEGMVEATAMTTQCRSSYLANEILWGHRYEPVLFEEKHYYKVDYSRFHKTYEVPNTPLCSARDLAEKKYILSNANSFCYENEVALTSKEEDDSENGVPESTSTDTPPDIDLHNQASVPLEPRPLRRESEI

[2] = system: IK1 currents; details: 3 μM chloroquine, at −100 mV; cited from earlier work
[3] = system: Kir2.1; details: at −100 mV, manual patch-clamp; cited from earlier work
[4] = system: Kir2.1; details: HEK cells, at −90 mV; ref Shen et al. 43; cited from earlier work
[5] = system: Kir2.1; details: Xenopus oocytes, at −120 mV; ref Schram et al. 23; cited from earlier work

| SMILES | Hill slope nH (95% CI) [1] | pIC50 [1] | decrease of IK1 currents [2] [%] | pIC50 [3] | Hill coefficient (nH) [1] | pIC50 [4] | pIC50 [5] |
| --- | --- | --- | --- | --- | --- | --- | --- |
| COc1ccc(C2CCN(CC[C@H]3CCOc4ccccc43)CC2)cc1OC [Terikalant, 1-[2-[(4S)-3,4-dihydro-2H-chromen-4-yl]ethyl]-4-(3,4-dimethoxyphenyl)piperidine] | 0.98 (0.88–1.1) | 5.08 | – | – | – | – | – |
| COc1ccc(CCCOC(Cn2ccnc2)c2ccc(OC)cc2)cc1 (stereo not drawn) [SKF-96365, 1-[2-(4-methoxyphenyl)-2-[3-(4-methoxyphenyl)propoxy]ethyl]imidazole] | 1.3 (1.1–1.5) | 5.33 | – | – | – | – | – |
| CCN(CC)CCCC(C)Nc1ccnc2cc(Cl)ccc12 (stereo not drawn) [Chloroquine, 4-N-(7-chloroquinolin-4-yl)-1-N,1-N-diethylpentane-1,4-diamine] | 0.80 (0.76–0.83) | 5.72 | 67 | – | – | – | – |
| COc1ccc(CNCc2cccc3ccccc23)cc1 [ML133, N-(4-methoxybenzyl)-1-(naphthalene-1-yl) methanamine] | 2.6 (2.2–3.1) | 5.92 | – | 5.74 | – | – | – |
| CN(C)CCCN1c2ccccc2Sc2ccc(Cl)cc21 [Chlorpromazine, 3-(2-chlorophenothiazin-10-yl)-N,N-dimethylpropan-1-amine] | 1.7 (1.4–2.1) | 5.42 | – | – | – | – | – |
| [Ba+2].[Cl-].[Cl-] [Ba^2+] | – | – | – | – | 1.03 | 5.10 | 4.80 |
